Data from patent EP0164320A1, “Pharmaceutical preparations for spinal analgesia containing guanfacine, and method for their preparation” (priority 1984, dated 1985).

Key:
Type in all cases: in vivo
[1] = system: male Sprague-Dawley rats; test: tail-flick test after intrathecal injection in rats; set-up: unit not given here; details: rat, mean ± S.E.M.
Protocol: (§1) The antinociceptive effect of guanfacine may be established by the hot plate and tail-flick test.
(§2) Testing of tail-flick was performed using an IITC Inc. Mod. 33 Analgesia- meter@, with the light focused on the tip of the tail (d'Amour, F.E. and Smith, D.L. J. Pharmacol. Exp. Ther. 72, 74, 1941). The intensity of the beam was adjusted to give a reaction time of 3-4 sec. before intrathecal injection of the drug solutions. For the hot plate testing, a modification of the Eddy and Leimbach method (Eddy, N.B. and Leimbach, D. J. Pharmacol. Exp. Ther. 107, 385, 1952) was used. An IITC Inc. Mod. 35-D Analgesiameter® was set at a temperature of 58^±0.2°C. The criteria for a pain response was licking of either of the hindpaws.
(§3) We examined the pain responsiveness of male Sprague-Dawley rats in a weight range of 300-350 g. […] The catheter was fixed at a surgical operation. The animals were kept in the animal colony in separate cages until testing took place 1 week after operation. The drug was administered in a volume of 15 µl, and testing of hot plate and tail-flick reaction latencies took place at the intervals given in the tables. Animals given the combination of guanfacine and bupivacaine were not tested until the local anaesthetic effect of bupivacaine had disappeared, which normally took between 10 and 15 minutes.
(§4) Guanfacine or a physiologically acceptable salt thereof was administered alone or in combination with the local anaesthetic agent bupivacaine or a physiologically acceptable salt thereof. When guanfacine'was administered together with bupivacaine first an initial phase of regional anaesthesia restricted to the hind-legs and the lower derma- tomes was obtained. When this effect had disappeared the animals were still non-responsive in the hot plate and tail-flick test for up to at least 7 hours after the injection, cf Table 2 below.

[2] = system: male Sprague-Dawley rats; test: hot plate test after intrathecal injection in rats; set-up: unit not given here; details: rat, mean ± S.E.M.
Protocol: as §1, §2, §3, §4

[3] = system: mice; test: tail-flick test after intrathecal injection in mice; set-up: unit not given here; details: 15 minutes after intrathecal injection of 5 µl, mean ± S.E.M.
Protocol: (§5) Antinociceptive effects in mice were established in the following test. The effect 15 minutes after intrathecal injection of a volume of 5 µl containing different doses of guanfacine was established. The vehicle used was a physiological solution of sodium chloride.

[4] = system: mice; test: hot-plate test after intrathecal injection in mice; set-up: unit not given here; details: 15 minutes after intrathecal injection of 5 µl, mean ± S.E.M.
Protocol: as §5

[5] = system: mice; test: behavioural response (paw licking) after subcutaneous formaline in mice; details: 1% formaline s.c. 20 µl, 5 µl, 0.01% (0.5 µg) of guanfacine i.th. 15 minutes before, ± S.E.M., 10 animals
Protocol: Behavioural response in mice after subcutaneous injection of 20 µl of a physiological solution of sodium chloride or a 1 % solution of formaline on the dorsum of either hind paw.
5 µl, 0.01% ([…]) of guanfacine or the same volume of a physiological solution of sodium chloride were injected intrathetecally 15 minutes before the subcutaneous injection of formaline. The accumulated reaction, i.e. the total time of licking on the injected paw, was measured during the 5 minutes after the injection of formaline.
The results are expressed as mean accumulated response during 5 minutes in seconds ± S.E.M. Each group consisted of 10 animals.

[6] = intrathecal 75 µg guanfacine (15 µl 0.5 %), 1 min, 100x(test-latency - pre-drug latency)/pre-drug latency, n=4
[7] = intrathecal 75 µg guanfacine, 5 min
[8] = intrathecal 75 µg guanfacine, 10 min
[9] = intrathecal 75 µg guanfacine, 20 min
[10] = intrathecal 75 µg guanfacine, 30 min
[11] = intrathecal 75 µg guanfacine, 45 min
[12] = intrathecal 75 µg guanfacine, 8 hours
[13] = intrathecal 75 µg guanfacine, 22 hours
[14] = 0.001 % guanfacine, dose 0.05 µg
[15] = 0.002 % guanfacine, dose 0.1 µg
[16] = 0.004 % guanfacine, dose 0.2 µg
[17] = 0.006 % guanfacine, dose 0.3 µg

## N=C(N)NC(=O)Cc1c(Cl)cccc1Cl [guanfacine, 2,6-dichlorophenyl-acetyl-guanidine]
[1]; [6]
  Antinociception tail-flick (cut-off=10 sec.): 27.5±17
[1]; [7]
  Antinociception tail-flick (cut-off=10 sec.): 92.75±26
[1]; [8]
  Antinociception tail-flick (cut-off=10 sec.): 110±33
[1]; [9]
  Antinociception tail-flick (cut-off=10 sec.): 147±13
[1]; [10]
  Antinociception tail-flick (cut-off=10 sec.): 153±10
[1]; [11]
  Antinociception tail-flick (cut-off=10 sec.): 156±8
[1]; [12]
  Antinociception tail-flick (cut-off=10 sec.): 138±20
[1]; [13]
  Antinociception tail-flick (cut-off=10 sec.): 62±8
[2]; [6]
  Antinociception hot plate (cut-off=30 sec.): -15±12
[2]; [7]
  Antinociception hot plate (cut-off=30 sec.): -15±6
[2]; [8]
  Antinociception hot plate (cut-off=30 sec.): 29±18
[2]; [9]
  Antinociception hot plate (cut-off=30 sec.): 62±29
[2]; [10]
  Antinociception hot plate (cut-off=30 sec.): 116±36
[2]; [11]
  Antinociception hot plate (cut-off=30 sec.): 239±23
[2]; [12]
  Antinociception hot plate (cut-off=30 sec.): 124±56
[2]; [13]
  Antinociception hot plate (cut-off=30 sec.): 41±12
[2]; intrathecal 75 µg guanfacine, 27 hours
  Antinociception hot plate (cut-off=30 sec.): 25±16
[3]; [14]
  Antinociception tail-flick (cut-off=10 sec): 29±23
[3]; [15]
  Antinociception tail-flick (cut-off=10 sec): 26±13
[3]; [16]
  Antinociception tail-flick (cut-off=10 sec): 59±17
[3]; [17]
  Antinociception tail-flick (cut-off=10 sec): 86±18
[4]; [14]
  Antinociception hot-plate (cut-off=30 sec): 128±29
[4]; [15]
  Antinociception hot-plate (cut-off=30 sec): 152±33
[4]; [16]
  Antinociception hot-plate (cut-off=30 sec): 152±47
[4]; [17]
  Antinociception hot-plate (cut-off=30 sec): 168±40
[5]
  mean accumulated response (total time of licking on the injected paw) during 5 minutes: 9 ± 2 s
